Among the data in patent US10689377B2 (Mirati Therapeutics, Inc., priority 2017, dated 2020) are IC50 values, retold here.

The structures appear in SMILES notation.

Chain of KRas G12C (P01116 1-188 isoform P01116-2 G12C): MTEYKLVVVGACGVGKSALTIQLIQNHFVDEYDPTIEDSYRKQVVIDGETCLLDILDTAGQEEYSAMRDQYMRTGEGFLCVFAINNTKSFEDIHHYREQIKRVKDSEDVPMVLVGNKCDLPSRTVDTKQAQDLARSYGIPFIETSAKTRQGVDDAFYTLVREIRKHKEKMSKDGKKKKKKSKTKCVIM

The experiment concerns the target KRas G12C (Homo sapiens, UniProt P01116, G12C). Kind of experiment: Cellular inhibition of KRas G12C measured by Phospho-ERK in NCI-H358 cells. The class given is cell-based. Conditions: pERK(Thr202/Tyr204) normalized with GAPDH, NCI-H358 cells, 3 hours; read-out: IC50. The method in brief:
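NCI-H358 cells were allowed to attach for 8-12 hours, then exposed to compounds for 3 hours at 0.5% DMSO final. After formaldehyde fixation and methanol permeabilization, phospho-ERK (Thr202/Tyr204) was detected by in-cell immunofluorescence and normalized to GAPDH; IC50 came from a 4-parameter fit of percent-of-DMSO values.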
As to `C=CC(=O)N1CCN(c2nc(OCCN(C)C)nc3c2CCN(c2ccccc2C(F)(F)F)C3)CC1CC#N` (stereo not shown) [Example 279, 2-(1-acryloyl-4-(2-(2-(dimethylamino)ethoxy)-7-(2-(trifluoromethyl)phenyl)-5,6,7,8-tetrahydropyrido[3,4-d]pyrimidin-4-yl)piperazin-2-yl)acetonitrile], the IC50 lay in the range of 0.1 to 1000 nM.
Turning to `C=CC(=O)N1CCN(c2nc(O[C@H](C)CN3CCOCC3)nc3c2CCN(c2cc(O)cc4ccccc24)C3)CC1` [Example 56, (R)-1-(4-(7-(3-hydroxynaphthalen-1-yl)-2-((1-morpholinopropan-2-yl)oxy)-5,6,7,8-tetrahydropyrido[3,4-d]pyrimidin-4-yl)piperazin-1-yl)prop-2-en-1-one], the 50% inhibitory concentration (IC50) lay within 0.1 to 1000 nM.
Turning to `C=CC(=O)N1CCN(c2nc(OC[C@@H]3C[C@@H](OC)CN3C)nc3c2CCN(c2cccc(Cl)c2C(F)(F)F)C3)C[C@@H]1CC#N` [Example 332, 2-[(2S)-4-[7-[3-chloro-2-(trifluoromethyl)phenyl]-2-[[(2S,4R)-4-methoxy-1-methyl-pyrrolidin-2-yl]methoxy]-6,8-dihydro-5H-pyrido[3,4-d]pyrimidin-4-yl]-1-prop-2-enoyl-piperazin-2-yl]acetonitrile], the IC50 fell in the range of 0.1 to 1000 nM.
Regarding `C=C(F)C(=O)N1CCN(c2nc(OC[C@@H]3CC(F)(F)CN3C)nc3c2CCN(c2c(C)c(C)cc4[nH]ncc24)C3)C[C@@H]1CC#N` [Example 613, 2-((S)-4-(2-(((S)-4,4-difluoro-1-methylpyrrolidin-2-yl)methoxy)-7-(5,6-dimethyl-1H-indazol-4-yl)-5,6,7,8-tetrahydropyrido[3,4-d]pyrimidin-4-yl)-1-(2-fluoroacryloyl)piperazin-2-yl)acetonitrile], the concentration for half-maximal inhibition (IC50) lay in the range of 0.1 to 1000 nM.
Take `C=CC(=O)N1CCN(c2nc(OCC3CCN(CC(=O)N(C)C)C3)nc3c2CCN(c2cc(O)cc4ccccc24)C3)CC1` (stereo not shown) [Example 140, 2-[3-[[7-(3-hydroxy-1-naphthyl)-4-(4-prop-2-enoylpiperazin-1-yl)-6,8-dihydro-5H-pyrido[3,4-d]pyrimidin-2-yl]oxymethyl]pyrrolidin-1-yl]-N,N-dimethyl-acetamide]: the IC50 is > 1000 nM.
With `C=CC(=O)N1CCN(c2nc(OC[C@@H]3CCCN3C)nc3c2CCN(c2ccccc2C(F)(F)F)C3)C[C@@H]1CC#N` [Example 379, 2-((S)-1-acryloyl-4-(2-(((S)-1-methylpyrrolidin-2-yl)methoxy)-7-(2-(trifluoromethyl)phenyl)-5,6,7,8-tetrahydropyrido[3,4-d]pyrimidin-4-yl)piperazin-2-yl)acetonitrile], the concentration for half-maximal inhibition (IC50) is 0.1 to 1000 nM.
In the case of `C=CC(=O)N1CCN(c2nc(OC[C@@H]3CCCN3CC)nc3c2CCN(c2cccc(Cl)c2C(F)(F)F)C3)C[C@@H]1CC#N` [Example 339, 2-((S)-1-acryloyl-4-(7-(3-chloro-2-(trifluoromethyl)phenyl)-2-(((S)-1-ethylpyrrolidin-2-yl)methoxy)-5,6,7,8-tetrahydropyrido[3,4-d]pyrimidin-4-yl)piperazin-2-yl)acetonitrile], the half-inhibitory concentration (IC50) is 0.1 to 1000 nM.
Take `C=C(F)C(=O)N1CCN(c2nc(OCc3ccccn3)nc3c2CCN(c2cccc4cccc(C)c24)C3)C[C@@H]1CC#N` [Example 605, 2-[(2S)-1-(2-fluoroprop-2-enoyl)-4-[7-(8-methyl-1-naphthyl)-2-(2-pyridylmethoxy)-6,8-dihydro-5H-pyrido[3,4-d]pyrimidin-4-yl]piperazin-2-yl]acetonitrile]: the IC50 is > 1000 nM.
On to `C=CC(=O)N1CCN(c2nc(OC[C@H]3CCCN3C)nc3c2CCN(c2ccccc2C(F)(F)F)C3)CC1CC#N` (stereo partly drawn) [Example 283, 2-(1-acryloyl-4-(2-(((R)-1-methylpyrrolidin-2-yl)methoxy)-7-(2-(trifluoromethyl)phenyl)-5,6,7,8-tetrahydropyrido[3,4-d]pyrimidin-4-yl)piperazin-2-yl)acetonitrile], for which the IC50 lay in the range of 0.1 to 1000 nM.
As to `C=CC(=O)N1CCN(c2nc(OC[C@H]3CCC(=O)N3)nc3c2CCN(c2cc(O)cc4ccccc24)C3)CC1` [Example 58, (R)-5-(((4-(4-acryloylpiperazin-1-yl)-7-(3-hydroxynaphthalen-1-yl)-5,6,7,8-tetrahydropyrido[3,4-d]pyrimidin-2-yl)oxy)methyl)pyrrolidin-2-one], the IC50 was > 1000 nM.
With `C=CC(=O)N1CCN(c2nc(OC[C@H]3CN(C)[C@H](C)CO3)nc3c2CCN(c2cccc4ccccc24)C3)C[C@@H]1CC#N` [Example 451, 2-((S)-1-Acryloyl-4-(2-(((2R,5R)-4,5-dimethylmorpholin-2-yl)methoxy)-7-(naphthalen-1-yl)-5,6,7,8-tetrahydropyrido[3,4-d]pyrimidin-4-yl)piperazin-2-yl)acetonitrile], the IC50 lay in the range of 0.1 to 1000 nM.
`C=CC(=O)N1CCN(c2nc(OC[C@@H]3CCCN3C)nc3c2CCN(c2cccc4cccc(F)c24)C3)C[C@@H]1CC#N` [Example 338]: the IC50 lay within 0.1 to 1000 nM.
For the molecule `C=CC(=O)N1CCN(c2nc(O[C@H](C)CN(C)C)nc3c2CCN(c2cc(O)cc(OC(F)(F)F)c2)C3)CC1` [Example 91, (R)-1-(4-(2-((1-(dimethylamino)propan-2-yl)oxy)-7-(3-hydroxy-5-(trifluoromethoxy)phenyl)-5,6,7,8-tetrahydropyrido[3,4-d]pyrimidin-4-yl)piperazin-1-yl)prop-2-en-1-one], the IC50 was > 1000 nM.
As for `C=CC(=O)N1CCN(c2nc(OCCN3CC(F)(F)C3)nc3c2CCN(c2cc(O)cc4ccccc24)C3)CC1` [Example 138, 1-[4-[2-[2-(3,3-difluoroazetidin-1-yl)ethoxy]-7-(3-hydroxy-1-naphthyl)-6,8-dihydro-5H-pyrido[3,4-d]pyrimidin-4-yl]piperazin-1-yl]prop-2-en-1-one], the IC50 was > 1000 nM.
On to `C=CC(=O)N1CCN(c2nc(OC[C@@H]3CCCN3C)nc3c2CCN(c2cccc4ccccc24)C3)CC1COC` (stereo partly drawn) [Example 429, 1-(2-(methoxymethyl)-4-(2-(((S)-1-methylpyrrolidin-2-yl)methoxy)-7-(naphthalen-1-yl)-5,6,7,8-tetrahydropyrido[3,4-d]pyrimidin-4-yl)piperazin-1-yl)prop-2-en-1-one], for which the 50% inhibitory concentration (IC50) was > 1000 nM.
`C=CC(=O)N1CCN(c2nc(OC[C@@H]3C[C@@H](F)CN3C)nc3c2CCN(c2cccc4ccccc24)C3)C[C@@H]1CC#N` [Example 306, 2-((S)-1-acryloyl-4-(2-(((2S,4R)-4-fluoro-1-methylpyrrolidin-2-yl)methoxy)-7-(naphthalen-1-yl)-5,6,7,8-tetrahydropyrido[3,4-d]pyrimidin-4-yl)piperazin-2-yl)acetonitrile]: the IC50 fell in the range of 0.1 to 1000 nM.
As to `C=CC(=O)N1CCN(c2nc(OC[C@@H]3CCCN3C)nc3c2CCN(c2cc(O)cc4ccccc24)C3)C(CO)C1` (stereo partly drawn) [Example 169, 1-[3-(hydroxymethyl)-4-[7-(3-hydroxy-1-naphthyl)-2-[[(2S)-1-methylpyrrolidin-2-yl]methoxy]-6,8-dihydro-5H-pyrido [3,4-d]pyrimidin-4-yl]piperazin-1-yl]prop-2-en-1-one], the concentration for half-maximal inhibition (IC50) is 0.1 to 1000 nM.
Then `C=CC(=O)N1CCN(c2nc(O[C@H](C)CN(C)C)nc3c2CCN(c2c(C)ccc4[nH]ncc24)C3)CC1CC#N` (stereo partly drawn) [Example 152, 2-[4-[2-[(1R)-2-(dimethylamino)-1-methyl-ethoxy]-7-(5-methyl-1H-indazol-4-yl)-6,8-dihydro-5H-pyrido[3,4-d]pyrimidin-4-yl]-1-prop-2-enoyl-piperazin-2-yl]acetonitrile], with 0.1 to 1000 nM; and `C=CC(=O)N1CCN(c2nc(OC3CCN(C)C3)nc3c2CCN(c2cc(O)cc4ccccc24)C3)CC1` (stereo not shown) [Example 23, 1-(4-(7-(3-hydroxynaphthalen-1-yl)-2-((1-methylpyrrolidin-3-yl)oxy)-5,6,7,8-tetrahydropyrido[3,4-d]pyrimidin-4-yl)piperazin-1-yl)prop-2-en-1-one], with > 1000 nM; and `C=CC(=O)N1CCN(c2nc(OC[C@@H]3CCCN3C)nc3c2CCN(c2cccc4ccc(F)cc24)C3)CC1CC#N` (stereo partly shown) [Example 302], with 0.1 to 1000 nM.
Consider `C=CC(=O)N1CCN(c2nc(OC[C@@H]3CCCN3C)nc3c2CCN(c2cccc(F)c2F)C3)C[C@@H]1CC#N` [Example 407, 2-((S)-1-acryloyl-4-(7-(2,3-difluorophenyl)-2-(((S)-1-methylpyrrolidin-2-yl)methoxy)-5,6,7,8-tetrahydropyrido[3,4-d]pyrimidin-4-yl)piperazin-2-yl)acetonitrile], for which the half-inhibitory concentration (IC50) is > 1000 nM.
Then `C=CC(=O)N1CCN(c2nc(OC[C@H]3CN(C)C(C)(C)CO3)nc3c2CCN(c2cccc4ccccc24)C3)C[C@@H]1CC#N` [Example 452, 2-((S)-1-Acryloyl-4-(7-(naphthalen-1-yl)-2-(((R)-4,5,5-trimethylmorpholin-2-yl)methoxy)-5,6,7,8-tetrahydropyrido[3,4-d]pyrimidin-4-yl)piperazin-2-yl)acetonitrile], with 0.1 to 1000 nM.
To `C=CC(=O)N1CCN(c2nc(OCCN3CCC(OC)C3)nc3c2CCN(c2cc(O)cc4ccccc24)C3)CC1` (stereo not shown) [Example 136, 1-[4-[7-(3-hydroxy-1-naphthyl)-2-[2-(3-methoxypyrrolidin-1-yl)ethoxy]-6,8-dihydro-5H-pyrido[3,4-d]pyrimidin-4-yl]piperazin-1-yl]prop-2-en-1-one] belongs > 1000 nM; to `CC(C)=CC(=O)N1CCN(c2nc(OC[C@@H]3CCCN3C)nc3c2CCN(c2cccc4ccccc24)C3)CC1CC#N` (stereo partly drawn) [Example 282, 2-(1-(3-methylbut-2-enoyl)-4-(2-(((S)-1-methylpyrrolidin-2-yl)methoxy)-7-(naphthalen-1-yl)-5,6,7,8-tetrahydropyrido[3,4-d]pyrimidin-4-yl)piperazin-2-yl)acetonitrile], > 1000 nM; to `C=CC(=O)N1CCN(c2nc(OC[C@H]3C[C@H](O)CN3C)nc3c2CCN(c2cccc(F)c2C(F)(F)F)C3)CC1CC#N` (stereo partly drawn) [Example 415, 2-(1-acryloyl-4-(7-(3-fluoro-2-(trifluoromethyl)phenyl)-2-(((2R,4S)-4-hydroxy-1-methylpyrrolidin-2-yl)methoxy)-5,6,7,8-tetrahydropyrido[3,4-d]pyrimidin-4-yl)piperazin-2-yl)acetonitrile], 0.1 to 1000 nM.
